Measurements reported in US12497393B2, “β-lactam compound, use thereof and preparation method therefor” (priority 2020, dated 2025).
Converted amounts (≈) assume the structure as drawn. Read-outs that look alike come from different tables or passages of the source.

Experiments:
Experiment in all cases: Antibacterial activity MIC assay (two-fold dilution agar plating)
Assay type in all cases: cell-based
[1] = test system: Citrobacter freundii; settings: ATCC43864; Citrobacter freundii ATCC 43864; read-out: Minimal Inhibitory Concentration (MIC)
Protocol: (§1) Antibacterial Activity-Evaluating Method (MIC Assay)
(§2) In this study, the compounds of the present invention were tested for their antibacterial activities by using two-fold dilution agar plating method and Denley Multipoint Inoculator A400 according to the guidelines of the CLSI/NCCLS standard. The tested strains were amplified by hydrolyzed casein peptone (Mueller-Hinton Agar) broth and Brain and Heart Infusion. The strains used in this study were bacterial strains that were purchased from ATCC or clinically isolated in Chinese hospitals. Aztreonam, polymyxin or levofloxacin was used as positive control. The drugs were diluted with hydrolyzed casein peptone broth to the desired concentrations including 128.0, 64.0, 32.0, 16.0, 8.0, 4.0, 2.0, 1.0, 0.5, 0.25, 0.125, 0.06 and 0.03 μg/mL, and then placed respectively into each well and mixed thoroughly. After inoculation, the tested strains were incubated for 18 hours at a constant temperature of 35° C., and their growth levels were observed. The drug concentration with no microbial growth in the well was recorded as the lowest Minimal Inhibitory Concentration (MIC).

[2] = test system: Providencia rettgeri; settings: Providencia rettgeri, ATCC31052, Providencia rettgeri ATCC 31052; read-out: Minimal Inhibitory Concentration (MIC)
Protocol: as §1, §2

[3] = test system: Salmonella typhi; settings: Salmonella enterica, TYPHI, read-out: Minimal Inhibitory Concentration (MIC)
Protocol: as §1, §2

[4] = test system: Serratia marcescens; settings: ATCC21074; Serratia marcescens ATCC 21074; read-out: Minimal Inhibitory Concentration (MIC)
Protocol: as §1, §2

[5] = test system: Klebsiella Pneumoniae; settings: Klebsiella pneumoniae, read-out: Minimal Inhibitory Concentration (MIC)
Protocol: as §1, §2

[6] = test system: Escherichia coli; settings: Escherichia coli, read-out: Minimal Inhibitory Concentration (MIC)
Protocol: as §1, §2

[7] = test system: Pseudomonas aeruginosa; settings: read-out: Minimal Inhibitory Concentration (MIC)
Protocol: as §1, §2

[8] = test system: Enterobacter aerogenes; settings: Klebsiella aerogenes, ATCC13048; Enterobacter aerogenes ATCC 13048; read-out: Minimal Inhibitory Concentration (MIC)
Protocol: as §1, §2

[9] = test system: Proteus vulgaris; settings: Proteus vulgaris, ATCC29905, Proteus vulgaris ATCC 29905; read-out: Minimal Inhibitory Concentration (MIC)
Protocol: as §1, §2

[10] = test system: Proteus mirabilis; settings: Proteus mirabilis, ATCC49565, Proteus mirabilis ATCC 49565; read-out: Minimal Inhibitory Concentration (MIC)
Protocol: as §1, §2

[11] = test system: Enterobacter cloacae; settings: read-out: Minimal Inhibitory Concentration (MIC)
Protocol: as §1, §2

[12] = test system: Stenotrophomonas maltophilia; settings: ATCC13636; Stenotrophomonas maltophilia ATCC 13636; read-out: Minimal Inhibitory Concentration (MIC)
Protocol: as §1, §2

[13] = test system: Acinetobacter baumannii; settings: Acinetobacter baumannii, read-out: Minimal Inhibitory Concentration (MIC)
Protocol: as §1, §2

[14] = test system: Shigella flexneri; settings: ATCC12022; Shigella flexneri ATCC 12022; read-out: Minimal Inhibitory Concentration (MIC)
Protocol: as §1, §2

[15] = ATCC700603, Klebsiella Pneumoniae ATCC 700603, ESBLs(+)
[16] = ATCCBAA2146, Klebsiella Pneumoniae ATCC BAA-2146, NDM-1(+)
[17] = Klebsiella Pneumoniae 09-20, mcr-1(+)
[18] = Klebsiella Pneumoniae 16-2, ESBLs(−)
[19] = Klebsiella Pneumoniae 16-14, ESBLs(+)
[20] = Klebsiella Pneumoniae 17-R27, CRE
[21] = ATCC25922, Escherichia coli ATCC 25922, ESBLs(−)
[22] = ATCC35218, Escherichia coli ATCC 35218, ESBLs(+)
[23] = Escherichia coli 08-85, mcr-1(+)
[24] = Escherichia coli 13-43, mcr-1(+)
[25] = Escherichia coli 13-66, mcr-1(+)
[26] = Escherichia coli 16-1, ESBLs(+)
[27] = Escherichia coli 16-7, ESBLs(−)
[28] = Escherichia coli 17-R28, CRE, NDM-1(+)
[29] = Escherichia coli CDC1001728, NDM-1(+)
[30] = ATCC27853, Pseudomonas aeruginosa ATCC 27853
[31] = ATCC43560, Enterobacter cloacae ATCC 43560
[32] = Enterobacter cloacae CDC1000654
[33] = ATCC19606, Acinetobacter baumannii ATCC 19606

In the case of `CC1(C)[C@H](NC(=O)/C(=N\OC2(C(=O)O)CC2)c2csc(N)n2)C(=O)N1OS(=O)(=O)O` [Compound A-1], the MIC [1] is reported as 0.12 µg/mL (≈ 0.259 µM), the MIC [2] is reported as at most 0.03 µg/mL and the MIC [3] is reported as 0.06 µg/mL (≈ 0.129 µM). The MIC [4] was 0.25 µg/mL (≈ 0.539 µM), the MIC [5, 15] was 4 µg/mL (≈ 8.63 µM) and the MIC [5, 16] was 0.5 µg/mL (≈ 1.08 µM). It also gave an MIC [5, 17] of 0.06 µg/mL (≈ 0.129 µM), an MIC [5, 18] of 2 µg/mL (≈ 4.32 µM) and an MIC [5, 19] of 0.12 µg/mL (≈ 0.259 µM). The MIC [5, 20] was 0.25 µg/mL (≈ 0.539 µM), the MIC [6, 21] was 0.12 µg/mL (≈ 0.259 µM) and the MIC [6, 22] was 0.06 µg/mL (≈ 0.129 µM). The MIC [6, 23] was 0.12 µg/mL (≈ 0.259 µM), the MIC [6, 24] was 0.12 µg/mL (≈ 0.259 µM) and the MIC [6, 25] was 0.12 µg/mL (≈ 0.259 µM). For the same compound, the MIC [6, 26] was 0.06 µg/mL (≈ 0.129 µM), the MIC [6, 27] was 0.12 µg/mL (≈ 0.259 µM) and the MIC [6, 28] was 4 µg/mL (≈ 8.63 µM). For the same compound, the MIC [6, 29] was 0.25 µg/mL (≈ 0.539 µM), the MIC [7, 30] was 8 µg/mL (≈ 17.3 µM) and the MIC ([7]; Pseudomonas aeruginosa 16-11) was 8 µg/mL (≈ 17.3 µM). For the same compound, the MIC ([7]; Pseudomonas aeruginosa PAO1) was 2 µg/mL (≈ 4.32 µM), the MIC [8] was 0.12 µg/mL (≈ 0.259 µM) and the MIC [9] was at most 0.03 µg/mL. It also gave an MIC [10] of at most 0.03 µg/mL, an MIC [11, 31] of 0.06 µg/mL (≈ 0.129 µM) and an MIC [11, 32] of 2 µg/mL (≈ 4.32 µM). The MIC [12] was 8 µg/mL (≈ 17.3 µM), the MIC [13, 33] was 16 µg/mL (≈ 34.5 µM) and the MIC ([13]; Acinetobacter baumannii 16-16) was 64 µg/mL (≈ 138 µM). The MIC ([13]; Acinetobacter baumannii 16-33) was 32 µg/mL (≈ 69 µM) and the MIC [14] was 0.12 µg/mL (≈ 0.259 µM).

`CC1(C)[C@H](NC(=O)/C(=N\OC2(C(=O)O)CCC2)c2csc(N)n2)C(=O)N1OS(=O)(=O)O` [Compound A-2] gave an MIC [1] of 0.12 µg/mL (≈ 0.251 µM), an MIC [2] of at most 0.03 µg/mL and an MIC [3] of 0.12 µg/mL (≈ 0.251 µM). For the same compound, the MIC [4] was 0.25 µg/mL (≈ 0.524 µM), the MIC [5, 15] was 1 µg/mL (≈ 2.09 µM) and the MIC [5, 16] was 0.25 µg/mL (≈ 0.524 µM). The MIC [5, 17] was 0.12 µg/mL (≈ 0.251 µM), the MIC [5, 18] was 2 µg/mL (≈ 4.19 µM) and the MIC [5, 19] was 0.12 µg/mL (≈ 0.251 µM). It also gave an MIC [5, 20] of 0.25 µg/mL (≈ 0.524 µM), an MIC [6, 21] of 0.12 µg/mL (≈ 0.251 µM) and an MIC [6, 22] of 0.06 µg/mL (≈ 0.126 µM). It also gave an MIC [6, 23] of 0.12 µg/mL (≈ 0.251 µM), an MIC [6, 24] of 0.12 µg/mL (≈ 0.251 µM) and an MIC [6, 25] of 0.12 µg/mL (≈ 0.251 µM). It also gave an MIC [6, 26] of 0.06 µg/mL (≈ 0.126 µM), an MIC [6, 27] of 0.12 µg/mL (≈ 0.251 µM) and an MIC [6, 28] of 16 µg/mL (≈ 33.5 µM). The MIC [6, 29] was 0.5 µg/mL (≈ 1.05 µM), the MIC [7, 30] was 4 µg/mL (≈ 8.38 µM) and the MIC ([7]; Pseudomonas aeruginosa 16-11) was 4 µg/mL (≈ 8.38 µM). For the same compound, the MIC ([7]; Pseudomonas aeruginosa PAO1) was 1 µg/mL (≈ 2.09 µM), the MIC [8] was 1 µg/mL (≈ 2.09 µM) and the MIC [9] was at most 0.03 µg/mL. It also gave an MIC [10] of at most 0.03 µg/mL, an MIC [11, 31] of 0.12 µg/mL (≈ 0.251 µM) and an MIC [11, 32] of 2 µg/mL (≈ 4.19 µM). The MIC [12] was 4 µg/mL (≈ 8.38 µM), the MIC [13, 33] was 16 µg/mL (≈ 33.5 µM) and the MIC ([13]; Acinetobacter baumannii 16-16) was over 64 µg/mL. It also gave an MIC ([13]; Acinetobacter baumannii 16-33) of 16 µg/mL (≈ 33.5 µM) and an MIC [14] of 0.25 µg/mL (≈ 0.524 µM).

With `CC1(C)[C@H](NC(=O)/C(=N\OC2(C(=O)O)CCCC2)c2csc(N)n2)C(=O)N1OS(=O)(=O)O` [Compound A-3] the MIC [1] was 0.25 µg/mL (≈ 0.509 µM), the MIC [2] was at most 0.03 µg/mL and the MIC [3] was 0.5 µg/mL (≈ 1.02 µM). It also gave an MIC [4] of 0.5 µg/mL (≈ 1.02 µM), an MIC [5, 15] of 1 µg/mL (≈ 2.03 µM) and an MIC [5, 16] of 0.5 µg/mL (≈ 1.02 µM). For the same compound, the MIC [5, 17] was 0.25 µg/mL (≈ 0.509 µM), the MIC [5, 18] was 2 µg/mL (≈ 4.07 µM) and the MIC [5, 19] was 0.5 µg/mL (≈ 1.02 µM). It also gave an MIC [5, 20] of 0.25 µg/mL (≈ 0.509 µM), an MIC [6, 21] of 0.25 µg/mL (≈ 0.509 µM) and an MIC [6, 22] of 0.25 µg/mL (≈ 0.509 µM). For the same compound, the MIC [6, 23] was 0.25 µg/mL (≈ 0.509 µM), the MIC [6, 24] was 0.5 µg/mL (≈ 1.02 µM) and the MIC [6, 25] was 0.25 µg/mL (≈ 0.509 µM). The MIC [6, 26] was 0.25 µg/mL (≈ 0.509 µM), the MIC [6, 27] was 0.5 µg/mL (≈ 1.02 µM) and the MIC [6, 28] was 8 µg/mL (≈ 16.3 µM). For the same compound, the MIC [6, 29] was 0.5 µg/mL (≈ 1.02 µM), the MIC [7, 30] was 4 µg/mL (≈ 8.14 µM) and the MIC ([7]; Pseudomonas aeruginosa 16-11) was 4 µg/mL (≈ 8.14 µM). The MIC ([7]; Pseudomonas aeruginosa PAO1) was 2 µg/mL (≈ 4.07 µM), the MIC [8] was 0.5 µg/mL (≈ 1.02 µM) and the MIC [9] was at most 0.03 µg/mL. For the same compound, the MIC [10] was 0.06 µg/mL (≈ 0.122 µM), the MIC [11, 31] was 0.5 µg/mL (≈ 1.02 µM) and the MIC [11, 32] was 4 µg/mL (≈ 8.14 µM). The MIC [12] was 4 µg/mL (≈ 8.14 µM), the MIC [13, 33] was 32 µg/mL (≈ 65.1 µM) and the MIC ([13]; Acinetobacter baumannii 16-16) was over 64 µg/mL. It also gave an MIC ([13]; Acinetobacter baumannii 16-33) of 32 µg/mL (≈ 65.1 µM) and an MIC [14] of 0.25 µg/mL (≈ 0.509 µM).
